According to patent publication US20230382998A1, “METHODS FOR TREATING INFLAMMATORY BOWEL DISEASES WITH a4B7 INTEGRIN ANTAGONISTS” (Protagonist Therapeutics, Inc., priority 2022, published 2023):
Numbered stars: 1 amine (or outer) side, 2 acyl side, 3 side chain; on linkers, the order of the positions; unused ones are H or OH. Bridge positions count the residues as written; N and C are the ends. Square brackets hold non-standard residues; d marks the D form. Peptide text beside a SMILES is read from it. I, II: the chains in the order shown. ξ: configuration not given here. Phe(4-tBu) = CC(C)(C)c1ccc(C[C@H](N)C(=O)O)cc1; Diglycolyl = O=C(COCC(=O)[*:2])[*:1]; NMeR = CN[C@@H](CCCNC(=N)N)C(=O)O; β3hE = N[C@@H](CCC(=O)O)CC(=O)O; Thr(3ξ) = CC(O)[C@H](N)C(=O)O; X1 = O=C(c1ccccc1C[*:2])[*:1]; Pen = CC(C)(S)[C@H](N)C(=O)O

Tests used:
[1] = system: subjects with moderate to severe active ulcerative colitis; assay: Phase 2 randomized, double-blind, placebo-controlled study of oral Compound (I), 12-week induction; assay type: in vivo, human; conditions: FIG. 3; for proportion of subjects achieving clinical remission at Week 12, total: 150 mg BID + 450 mg BID
Source text: As used herein, the term “clinical remission rate” refers to when the symptoms of IBD have lessened to the point that they're mostly absent or gone, including endoscopic remission, wherein inflammation is seen during a colonoscopy or a sigmoidoscopy and determined by a healthcare provider that the lining of the digestive tract is improved or healed. […] As used herein, the term “compound of formula (I)” or Compound (I) refers to a peptide compound having the following structure:
The study also evaluates the pharmacokinetic (PK) and pharmacodynamics (PD) and biomarker responses to treatment with oral Compound (I).
This is a two-part study: Part 1 is a randomized, double-blind, placebo-controlled, parallel design 12-week induction treatment period in patients with moderate to severe active UC; and Part 2 is an extended treatment period of 40 weeks that will include subjects who successfully complete Part 1. Subjects who complete the Week 12 visit for Part 1 will be eligible to enter Part 2.
Part 1 is a 12-week randomized, double-blind, placebo-controlled, parallel design study in adult subjects with moderate to severe active UC. Eligible subjects are randomized 1:1:1 to Compound (I) 450 mg twice daily (BID), Compound (I) 150 mg BID, or placebo BID. Subjects must have a biopsy-confirmed diagnosis of UC. […] Subjects with a history of prior vedolizumab treatment will be excluded. Randomization will be stratified by prior failure to a TNFα antagonist or an IL-12/23 antagonist.
Primary outcome measures include the proportion of subjects achieving clinical remission at Week 12 compared to placebo. Clinical remission is determined using the Adapted Mayo score (sum of 3 subscores from the Mayo score): • Stool frequency subscore (SFS) • Rectal bleeding subscore (RBS) • Endoscopic subscore (ESS)
Efficacy is assessed, at least in part, based on the Mayo score. The Mayo score includes 4 components: Stool Frequency Subscore (SFS), Rectal Bleeding Subscore (RBS), Endoscopic Subscore (ESS) and Physician's Global Assessment (PGA). Each of the individual scores range from 0 to 3 with higher number indicating higher severity): • Complete Mayo Score is a sum of all 4 subscores (SFS, RBS, ESS and PGA) and ranges from 0 to 12 points. • Adapted Mayo Score is a sum of 3 subscores (SFS, RBS and ESS). The Adapted Mayo score ranges from 0 to 9 points. • Partial Mayo Score is a sum of 3 subscores (SFS, RBS and PGA) ranging from 0 to 9 points.
Blood samples for measurement of Compound (I) plasma concentrations will be collected at 0 (within 1 hour pre-dose) and at 1, 2, and 4 hours post-dose on Week 0 (Study Day 1) and Week 12. A single pre-dose sample should be collected within 1 hour prior to the first dose of the day on each clinic visit.
Blood (4 mL) samples for PK analysis will be obtained in K2EDTA tubes prior to dosing and at the time points delineated in the study schedule. All samples (except those collected post-dose on Day 0 and Day 84) should be obtained prior to the daily dosing of study drug (i.e. Ctrough).

[2] = DTT (Dithiothreitol) assay, stability to gastric environment under reduced conditions; assay type: physicochemical
Procedure: The compound of formula (I) or a pharmaceutically acceptable salt thereof comprises a half-life from approximately 1 minute to approximately 180 minutes.

[3] = trough concentration quartile Q1 at week 12
[4] = trough concentration quartile Q2 at week 12
[5] = trough concentration quartile Q3 at week 12
[6] = trough concentration quartile Q4 at week 12

Question: For `CC(C)C[C@@H]1NC(=O)[C@H](C(C)O)NC(=O)[C@H](CC(=O)O)NC(=O)[C@H](CO)NC(=O)[C@H](CCCNC(=N)N)N(C)C(=O)c2ccccc2CSC(C)(C)[C@@H](C(=O)N[C@@H](Cc2ccc(C(C)(C)C)cc2)C(=O)N[C@@H](CCC(=O)O)CC(=O)N[C@H](CCCCNC(=O)COCC(=O)NCCCC[C@@H](NC(=O)C[C@H](CCC(=O)O)NC(=O)[C@H](Cc2ccc(C(C)(C)C)cc2)NC(=O)[C@H]2NC(=O)[C@H](CC(C)C)NC(=O)[C@H](C(C)O)NC(=O)[C@H](CC(=O)O)NC(=O)[C@H](CO)NC(=O)[C@H](CCCNC(=N)N)N(C)C(=O)c3ccccc3CSC2(C)C)C(=O)O)C(=O)O)NC1=O` (stereo partly drawn) [compound of formula (I)] (I: [NMeR]SD[Thr(3ξ)]L[Pen][Phe(4-tBu)][β3hE][dK]-OH / II: [NMeR]SD[Thr(3ξ)]L[Pen][Phe(4-tBu)][β3hE][dK]-OH; linker I:9-II:9 via Diglycolyl; linker I:N-I:6, II:N-II:6 via X1), which “proportion of subjects achieving clinical remission at Week 12, total” value (shortened to “proportion … total”) [1, 3] is on record?
Answer: Its value is 33.3%.

Question: What about the “proportion of subjects achieving clinical remission at Week 12, part being 450 mg BID dose” value (from here on “proportion … part being 450 mg BID dose”) [1, 3] of the same compound?
Answer: Its value is 26.7%.

Question: What about the “proportion … total” value [1, 4] of the same compound?
Answer: Its value is 40%.

Question: And the “proportion … part being 450 mg BID dose” value [1, 4]?
Answer: Its value is 26.7%.

Question: What about the “proportion … total” value [1, 5] of the same compound?
Answer: The value was 13.3%.

Question: And the “proportion … part being 450 mg BID dose” value [1, 5]?
Answer: The value was 6.7%.

Question: What about the “proportion … total” value [1, 6] of the same compound?
Answer: Its value is 18.8%.

Question: And the “proportion … part being 450 mg BID dose” value [1, 6]?
Answer: The value was 6.3%.

Question: What about the half-life [2] of the same compound?
Answer: The half-life was greater than 2 h.
